The numbers were not newly measured in patent US8691803B2, “Process for the preparation of antibiotic compounds” (Savior Lifetec Corporation, priority 2011, dated 2014), which cites them from elsewhere.

For the data set the following is noted: storage; must be stored at a low temperature.

As to `C[C@@H](O)[C@H]1C(=O)N2C(C(=O)O)=C(S[C@@H]3CN[C@H](C(=O)Nc4cccc(C(=O)O)c4)C3)[C@H](C)[C@H]12` [ertapenem], the Temperature stability result was “unstable above −20 °C”.
